Data from patent publication US10239843B2 (CANCER RESEARCH TECHNOLOGY LIMITED, priority 2014, dated 2019).

biological target: Human Full Length PARG (Homo sapiens (Human), UniProt Q86W56); experiment: PARG enzyme assay (TR-FRET); format: biochemical; details: read-out: PARG Biochem IC50 Geomean
Sequence (Q86W56 whole entry): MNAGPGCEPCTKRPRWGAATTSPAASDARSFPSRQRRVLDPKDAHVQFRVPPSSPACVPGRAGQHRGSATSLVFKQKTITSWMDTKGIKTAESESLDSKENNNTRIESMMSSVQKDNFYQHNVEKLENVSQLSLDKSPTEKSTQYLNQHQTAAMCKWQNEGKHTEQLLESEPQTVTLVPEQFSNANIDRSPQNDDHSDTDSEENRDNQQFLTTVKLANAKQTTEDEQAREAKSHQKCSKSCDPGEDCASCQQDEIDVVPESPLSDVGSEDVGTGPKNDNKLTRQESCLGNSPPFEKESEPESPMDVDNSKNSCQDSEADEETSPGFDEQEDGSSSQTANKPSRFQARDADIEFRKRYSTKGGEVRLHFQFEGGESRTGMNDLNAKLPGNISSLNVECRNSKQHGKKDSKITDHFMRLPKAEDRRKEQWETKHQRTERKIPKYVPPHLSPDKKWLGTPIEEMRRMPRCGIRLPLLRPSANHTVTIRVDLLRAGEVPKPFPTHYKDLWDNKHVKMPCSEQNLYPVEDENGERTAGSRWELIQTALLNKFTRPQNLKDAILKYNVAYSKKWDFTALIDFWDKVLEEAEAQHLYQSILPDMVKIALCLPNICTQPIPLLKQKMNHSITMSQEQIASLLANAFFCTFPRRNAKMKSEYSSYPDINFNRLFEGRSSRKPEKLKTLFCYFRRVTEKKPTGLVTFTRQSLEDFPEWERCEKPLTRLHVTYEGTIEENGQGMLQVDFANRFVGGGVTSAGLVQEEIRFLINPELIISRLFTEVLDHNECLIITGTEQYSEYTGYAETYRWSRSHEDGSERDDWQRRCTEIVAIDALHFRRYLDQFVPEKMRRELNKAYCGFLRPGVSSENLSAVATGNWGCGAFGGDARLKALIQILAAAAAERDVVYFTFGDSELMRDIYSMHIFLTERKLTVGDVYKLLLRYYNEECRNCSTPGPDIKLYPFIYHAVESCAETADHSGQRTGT

| SMILES | IC50 [nM] |
| --- | --- |
| Cc1nc(C)c(Cn2c(=O)c3cc(S(=O)(=O)NC4(C)CC4)ccc3n(C)c2=O)o1 [Example 189] | 1330 |
| Cc1noc(Cn2c(=O)c3cc(S(=O)(=O)NC4(C)CC4)ccc3n(C)c2=O)n1 [Example 190] | 3180 |
| Cc1nc(C)c(Cn2c(=O)n(C)c(=O)c3cc(S(=O)(=O)NC(C)(C)C)ccc32)s1 [Example 202] | 1390 |
| Cn1c(=O)n(Cc2cnn(CC(N)=O)c2)c(=O)c2cc(S(=O)(=O)NC3(C)CC3)ccc21 [Example 203] | 635 |
| Cc1cc(Cn2cc(Cl)c3ccc(S(=O)(=O)NC4(C)CC4)cc3c2=O)on1 [Example 209, 4-Chloro-N-(1-methylcyclopropyl)-2-[(3-methylisoxazol-5-yl)methyl]-1-oxo-isoquinoline-7-sulfonamide] | 1640 |
| Cn1c(=O)[nH]c2cc(F)c(S(=O)(=O)NC3(C)CC3)cc2c1=O [Example 211, 7-Fluoro-3-methyl-N-(1-methylcyclopropyl)-2,4-dioxo-1H-quinazoline-6-sulfonamide] | 1560 |
| COc1ccc(Cn2cc(Cn3c(=O)c4cc(S(=O)(=O)NC5(C)CC5)ccc4n(C)c3=O)cn2)cc1 [Example 212] | 1370 |
| Cn1c(=O)n(Cc2cnn(Cc3ccccc3)c2)c(=O)c2cc(S(=O)(=O)NC3(C)CC3)ccc21 [Example 215] | 592 |
| C#CCn1cc(Cn2c(=O)c3cc(S(=O)(=O)NC4(C)CC4)ccc3n(C)c2=O)cn1 [Example 216] | 560 |
| Cn1c(=O)n(Cc2cnn(CC3CC3)c2)c(=O)c2cc(S(=O)(=O)NC3(C)CC3)ccc21 [Example 218] | 681 |
| CN(C)CCn1cc(Cn2c(=O)c3cc(S(=O)(=O)NC4(C)CC4)ccc3n(C)c2=O)cn1 [Example 219] | 2480 |
| Cc1cc(Cn2c(=O)[nH]c3ccc(S(=O)(=O)NC4(C)CC4)cc3c2=O)on1 [Example 221, N-(1-methylcyclopropyl)-3-[(3-isoxazol-5-yl)methyl]-2,4-dioxo-1H-quinazoline-6-sulfonamide] | 649 |
| Cn1c(=O)c2cc(S(=O)(=O)NC3(C)CC3)c(F)cc2n(C)c1=O [Example 224] | 1440 |
| Cn1c(=O)c2cc(S(=O)(=O)NC3(C)CC3)cc(F)c2n(C)c1=O [Example 225] | 7490 |
| Cn1nc(Cl)c2ccc(S(=O)(=O)NC3(C)CC3)cc2c1=O [Example 227, 1-Chloro-3-methyl-N-(1-methylcyclopropyl)-4-oxo-phthalazine-6-sulfonamide] | 5140 |
| CN1CCCC(Cn2c(=O)n(Cc3cnn(C)c3)c(=O)c3cc(S(=O)(=O)NC4(C)CC4)ccc32)C1 (stereo not drawn) [Example 236] | 6740 |

| SMILES | IC50 [nM] |
| --- | --- |
| CC1(NS(=O)(=O)c2ccc3[nH]c(=O)n(C4CC4)c(=O)c3c2)CC1 [Example 240, 3-Cyclopropyl-N-(1-methylcyclopropyl)-2,4-dioxo-1H-quinazoline-6-sulfonamide] | 4120 |
| Cc1cc(Cn2c(=O)n(C3CC3)c(=O)c3cc(S(=O)(=O)NC4(C)CC4)ccc32)n(C)n1 [Example 241] | 642 |
| Cc1cc(Cn2ccc3ccc(S(=O)(=O)NC4(C)CC4)cc3c2=O)on1 [Example 242, N-(1-Methylcyclopropyl)-2-[(3-methylisoxazol-5-yl)methyl]-1-oxo-isoquinoline-7-sulfonamide] | 7350 |
| CNc1nn(Cc2cc(C)no2)c(=O)c2cc(S(=O)(=O)NC3(C)CC3)ccc12 [Example 244, 1-(methylamino)-N-(1-methylcyclopropyl)-3-[(3-methylisoxazol-5-yl)methyl]-4-oxo-phthalazine-6-sulfonamide] | 666 |
| Cc1cc(Cn2c(=O)c3cc(S(=O)(=O)NC4(C)CC4)ccc3n(CCN3CCCC3)c2=O)on1 [Example 248] | 521 |
| CCC1(NS(=O)(=O)c2ccc3c(c2)c(=O)n(Cc2cc(C)no2)c(=O)n3C)CC1 [Example 261] | 3040 |
| Cc1cc(Cn2nc(Cl)c3ccc(S(=O)(=O)NC4(C)CC4)cc3c2=O)on1 [Example 262, 1-Chloro-N-(1-methylcyclopropyl)-3-[(3-methylisoxazol-5-yl)methyl]-4-oxo-phthalazine-6-sulfonamide] | 1110 |
| Cc1cc(Cn2cc(CCCN(C)C)c3ccc(S(=O)(=O)NC4(C)CC4)cc3c2=O)on1 [Example 287, 4-[3-(dimethylamino)propyl]-N-(1-methylcyclopropyl)-2-[(3-methylisoxazol-5-yl)methyl]-1-oxo-isoquinoline-7-sulfonamide] | 1070 |
| COC(=O)c1nn(Cc2cc(C)no2)c(=O)c2cc(S(=O)(=O)NC3(C)CC3)ccc12 [Example 301] | 836 |
| CNC(=O)c1nn(Cc2cc(C)no2)c(=O)c2cc(S(=O)(=O)NC3(C)CC3)ccc12 [Example 303] | 800 |
| Cc1cc(Cn2cc(Br)c3ccc(S(=O)(=O)NC4(C)CC4)cc3c2=O)on1 [Example 307, 4-Bromo-N-(1-methylcyclopropyl)-2-[(3-methylisoxazol-5-yl)methyl]-1-oxo-isoquinoline-7-sulfonamide] | 2680 |
| COc1nn(Cc2cc(C)no2)c(=O)c2cc(S(=O)(=O)NC3(C)CC3)ccc12 [Example 312, 1-Methoxy-N-(1-methylcyclopropyl)-3-[(3-methylisoxazol-5-yl)methyl]-4-oxo-phthalazine-6-sulfonamide] | 1230 |
| Cc1cc(Cn2nc(CC3CCCCC3)c3ccc(S(=O)(=O)NC4(C)CC4)cc3c2=O)on1 [Example 314] | 1370 |
| COc1cccc(Cc2nn(Cc3cc(C)no3)c(=O)c3cc(S(=O)(=O)NC4(C)CC4)ccc23)c1 [Example 315] | 871 |
| CCOc1nn(Cc2cc(C)no2)c(=O)c2cc(S(=O)(=O)NC3(C)CC3)ccc12 [Example 316, 1-Ethoxy-N-(1-methylcyclopropyl)-3-[(3-methylisoxazol-5-yl)methyl]-4-oxo-phthalazine-6-sulfonamide] | 737 |

More lines, in order of falling IC50, values ahead:

| IC50 [nM] | SMILES |
| --- | --- |
| 8520 | Cn1cc(-c2ccc(F)cc2)c2ccc(S(=O)(=O)NC3(C)CC3)cc2c1=O [Example 255, 4-(4-Fluorophenyl)-2-methyl-N-(1-methylcyclopropyl)-1-oxo-isoquinoline-7-sulfonamide] |
| 7470 | CC1(NS(=O)(=O)c2ccc3[nH]c(=O)n(CC(N)=O)c(=O)c3c2)CC1 [Example 223, 2-[6-[(1-Methylcyclopropyl)sulfamoyl]-2,4-dioxo-1H-quinazolin-3-yl]acetamide] |
| 6720 | Cc1cc(Cn2nc(C(=O)O)c3ccc(S(=O)(=O)NC4(C)CC4)cc3c2=O)on1 [Example 302, 6-(N-(1-Methylcyclopropyl)sulfamoyl)-3-((3-methylisoxazol-5-yl)methyl)-4-oxo-3,4-dihydrophthalazine-1-carboxylic acid] |
| 4410 | Cn1c(=O)n(CC(=O)N2CCOCC2)c(=O)c2cc(S(=O)(=O)NC3(C)CC3)ccc21 [Example 182] |
| 3790 | Cc1cc(Cn2c(=O)c3cc(S(=O)(=O)NC4CC4)ccc3n(C)c2=O)on1 [Example 260] |
| 3220 | Cc1cc(Cn2c(=O)c3cc(S(=O)(=O)NC4(C)CC4)ccc3n(C)c2=O)n[nH]1 [Example 195] |
| 2600 | Cc1cc(Cn2c(=O)c3cc(S(=O)(=O)NC4(C)CC4)cnc3n(C)c2=O)on1 [Example 205] |
| 2520 | Cc1cc(Cn2nc(C3CCCC3)c3ccc(S(=O)(=O)NC4(C)CC4)cc3c2=O)on1 [Example 309] |
| 2100 | Cc1cc(Cn2cc(Cc3ccc(F)cc3)c3ccc(S(=O)(=O)NC4(C)CC4)cc3c2=O)on1 [Example 322, 4-[(4-Fluorophenyl)methyl]-N-(1-methylcyclopropyl)-2-[(3-methylisoxazol-5-yl)methyl]-1-oxo-isoquinoline-7-sulfonamide] |
| 1980 | CNc1nn(C)c(=O)c2cc(S(=O)(=O)NC3(C)CC3)ccc12 [Example 234, 3-Methyl-1-(methylamino)-N-(1-methylcyclopropyl)-4-oxo-phthalazine-6-sulfonamide] |
| 1840 | Cc1ncoc1Cn1c(=O)c2cc(S(=O)(=O)NC3(C)CC3)ccc2n(C)c1=O [Example 188] |
| 1280 | Cc1cc(Cn2cc(C)c3ccc(S(=O)(=O)NC4(C)CC4)cc3c2=O)on1 [Example 256, 4-Methyl-N-(1-methylcyclopropyl)-2-[(3-methylisoxazol-5-yl)methyl]-1-oxo-isoquinoline-7-sulfonamide] |
| 1270 | Cc1cc(Cn2ncc3ccc(S(=O)(=O)NC4(C)CC4)cc3c2=O)on1 [Example 299, N-(1-Methylcyclopropyl)-3-[(3-methylisoxazol-5-yl)methyl]-4-oxo-phthalazine-6-sulfonamide] |
| 1230 | Cc1cc(Cn2cnc3ccc(S(=O)(=O)NC4(C)CC4)cc3c2=O)on1 [Example 210] |
| 1180 | Cn1c(=O)n(Cc2ccno2)c(=O)c2cc(S(=O)(=O)NC3(C)CC3)ccc21 [Example 226] |
| 1180 | Cc1cc(Cn2nc(C)c3ccc(S(=O)(=O)NC4(C)CC4)cc3c2=O)on1 [Example 284, 1-methyl-N-(1-methylcyclopropyl)-3-[(3-methylisoxazol-5-yl)methyl]-4-oxo-phthalazine-6-sulfonamide] |
| 877 | Cc1nnsc1Cn1c(=O)c2cc(S(=O)(=O)NC3(C)CC3)ccc2n(C)c1=O [Example 191] |
| 859 | Cc1cc(Cn2nc(OC3CCC3)c3ccc(S(=O)(=O)NC4(C)CC4)cc3c2=O)on1 [Example 319] |
| 842 | Cc1cc(Cn2cc(C#CCN(C)C)c3ccc(S(=O)(=O)NC4(C)CC4)cc3c2=O)on1 [Example 286, 4-[3-(Dimethylamino)prop-1-ynyl]-N-(1-methylcyclopropyl)-2-[(3-methylisoxazol-5-yl)methyl]-1-oxo-isoquinoline-7-sulfonamide] |
| 674 | Cc1cc(Cn2nc(CC3CCC3)c3ccc(S(=O)(=O)NC4(C)CC4)cc3c2=O)on1 [Example 320] |
| 638 | Cc1cc(Cn2nc(N(C)C)c3ccc(S(=O)(=O)NC4(C)CC4)cc3c2=O)on1 [Example 282] |
| 526 | Cc1cc(Cn2c(=O)c3cc(S(=O)(=O)NC4(C)CC4)ccc3n(CCN3CCCCC3)c2=O)on1 [Example 278] |
| 512 | Cc1cc(Cn2nc(C#CCN(C)C)c3ccc(S(=O)(=O)NC4(C)CC4)cc3c2=O)on1 [Example 283, 1-[3-(dimethylamino)prop-1-ynyl]-N-(1-methylcyclopropyl)-3-[(3-methylisoxazol-5-yl)methyl]-4-oxo-phthalazine-6-sulfonamide] |
